Among the data in patent publication US20250361230A1, “LATS Inhibitors and Uses Thereof” (The USA, as Represented by the Secretary, Dept. of Heath …, priority 2022, published 2025) are IC50 values, retold here.

Structures are written as SMILES. Read-outs that look alike come from different tables or passages of the source.

Holding throughout (format): biochemical
For one assay, the target named is AKT (Homo sapiens, UniProt P31749). Put plainly: RBC HotSpot kinase assay (33P-ATP, P81 filter-binding), AKT. The settings on record: read-out: AKT IC50. The gist of the method:
(§1)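 Substrate in fresh buffer receives cofactors, then kinase, then compound in DMSO for a 20 min room-temperature preincubation. Reactions start with 33P-ATP and run 2 h; phosphorylation is read by P81 filter binding, and IC50 comes from a 10-point curve.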

The target of another assay is T1, LATS2 (Homo sapiens, UniProt Q9NRM7).
T1 sequence (Q9NRM7 1-1088): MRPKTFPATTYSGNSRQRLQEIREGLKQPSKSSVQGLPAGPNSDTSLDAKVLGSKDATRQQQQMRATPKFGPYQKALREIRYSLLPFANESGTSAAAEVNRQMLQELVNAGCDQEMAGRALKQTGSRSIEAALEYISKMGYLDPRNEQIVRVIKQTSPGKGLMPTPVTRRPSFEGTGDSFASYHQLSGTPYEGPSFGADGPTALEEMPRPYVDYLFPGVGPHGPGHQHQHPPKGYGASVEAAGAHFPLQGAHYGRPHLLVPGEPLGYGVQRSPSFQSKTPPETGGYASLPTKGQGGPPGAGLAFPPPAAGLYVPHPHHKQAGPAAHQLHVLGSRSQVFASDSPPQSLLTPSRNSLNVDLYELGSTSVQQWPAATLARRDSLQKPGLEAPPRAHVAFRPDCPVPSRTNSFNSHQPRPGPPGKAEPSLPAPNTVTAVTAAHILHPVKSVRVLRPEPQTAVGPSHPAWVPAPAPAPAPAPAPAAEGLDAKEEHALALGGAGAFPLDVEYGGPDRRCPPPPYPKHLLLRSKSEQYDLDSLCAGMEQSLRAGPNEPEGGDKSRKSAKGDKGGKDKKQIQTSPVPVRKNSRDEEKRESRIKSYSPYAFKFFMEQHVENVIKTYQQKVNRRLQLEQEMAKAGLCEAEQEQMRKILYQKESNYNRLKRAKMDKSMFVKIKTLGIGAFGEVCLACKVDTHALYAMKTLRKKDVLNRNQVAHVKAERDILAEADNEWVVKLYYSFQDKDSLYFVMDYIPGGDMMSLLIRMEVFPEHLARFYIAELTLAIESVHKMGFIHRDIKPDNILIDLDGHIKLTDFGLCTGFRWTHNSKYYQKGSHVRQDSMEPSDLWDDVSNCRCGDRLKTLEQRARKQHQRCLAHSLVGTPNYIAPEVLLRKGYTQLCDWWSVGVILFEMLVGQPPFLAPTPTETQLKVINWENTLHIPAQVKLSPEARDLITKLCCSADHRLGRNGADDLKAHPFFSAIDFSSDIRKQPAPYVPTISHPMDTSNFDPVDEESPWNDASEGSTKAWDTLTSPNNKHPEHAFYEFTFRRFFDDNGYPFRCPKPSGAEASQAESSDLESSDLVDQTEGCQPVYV
Description: RBC HotSpot kinase assay (33P-ATP, P81 filter-binding), LATS2. The settings on record: read-out: LATS2 IC50. The gist of the method:
as §1

A further assay concerns the target T2, LATS1 (Homo sapiens, UniProt O95835).
T2 sequence (O95835 1-1130): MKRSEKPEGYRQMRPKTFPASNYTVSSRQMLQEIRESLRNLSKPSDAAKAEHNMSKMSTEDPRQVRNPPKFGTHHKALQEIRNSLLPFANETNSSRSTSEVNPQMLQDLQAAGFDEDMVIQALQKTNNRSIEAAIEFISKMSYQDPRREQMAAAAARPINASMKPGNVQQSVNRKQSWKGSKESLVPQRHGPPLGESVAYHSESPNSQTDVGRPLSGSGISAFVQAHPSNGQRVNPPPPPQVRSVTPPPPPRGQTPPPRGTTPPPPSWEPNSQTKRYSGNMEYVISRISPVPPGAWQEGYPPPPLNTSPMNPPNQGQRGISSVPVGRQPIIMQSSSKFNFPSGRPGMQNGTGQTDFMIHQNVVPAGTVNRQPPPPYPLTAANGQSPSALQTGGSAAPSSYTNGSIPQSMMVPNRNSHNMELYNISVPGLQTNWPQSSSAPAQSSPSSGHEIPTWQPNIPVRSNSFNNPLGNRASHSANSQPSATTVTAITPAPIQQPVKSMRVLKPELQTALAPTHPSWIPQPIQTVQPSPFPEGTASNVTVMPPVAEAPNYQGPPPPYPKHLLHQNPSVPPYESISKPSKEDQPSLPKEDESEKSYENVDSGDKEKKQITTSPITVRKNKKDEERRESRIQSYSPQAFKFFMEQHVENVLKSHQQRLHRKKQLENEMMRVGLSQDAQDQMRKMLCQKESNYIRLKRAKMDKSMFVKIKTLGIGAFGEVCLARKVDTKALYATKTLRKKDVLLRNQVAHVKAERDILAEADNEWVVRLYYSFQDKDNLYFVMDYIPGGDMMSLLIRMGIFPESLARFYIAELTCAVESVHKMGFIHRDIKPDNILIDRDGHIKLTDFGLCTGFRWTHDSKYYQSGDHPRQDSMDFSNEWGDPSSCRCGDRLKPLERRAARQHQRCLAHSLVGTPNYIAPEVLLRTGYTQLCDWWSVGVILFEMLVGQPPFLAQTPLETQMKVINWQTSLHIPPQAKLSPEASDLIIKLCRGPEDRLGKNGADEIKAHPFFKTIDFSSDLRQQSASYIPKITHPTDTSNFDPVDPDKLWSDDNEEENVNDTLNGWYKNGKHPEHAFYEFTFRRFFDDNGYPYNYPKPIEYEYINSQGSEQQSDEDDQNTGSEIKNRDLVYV
Put plainly: RBC HotSpot kinase assay (33P-ATP, P81 filter-binding), LATS1. The settings on record: read-out: LATS1 IC50. The gist of the method:
as §1

The mark [1] stands for this setting: Table 28, biochemical kinase assay.
Setting [2] is: Table 32, biochemical kinase assay.

Sequence of AKT (P31749 whole entry): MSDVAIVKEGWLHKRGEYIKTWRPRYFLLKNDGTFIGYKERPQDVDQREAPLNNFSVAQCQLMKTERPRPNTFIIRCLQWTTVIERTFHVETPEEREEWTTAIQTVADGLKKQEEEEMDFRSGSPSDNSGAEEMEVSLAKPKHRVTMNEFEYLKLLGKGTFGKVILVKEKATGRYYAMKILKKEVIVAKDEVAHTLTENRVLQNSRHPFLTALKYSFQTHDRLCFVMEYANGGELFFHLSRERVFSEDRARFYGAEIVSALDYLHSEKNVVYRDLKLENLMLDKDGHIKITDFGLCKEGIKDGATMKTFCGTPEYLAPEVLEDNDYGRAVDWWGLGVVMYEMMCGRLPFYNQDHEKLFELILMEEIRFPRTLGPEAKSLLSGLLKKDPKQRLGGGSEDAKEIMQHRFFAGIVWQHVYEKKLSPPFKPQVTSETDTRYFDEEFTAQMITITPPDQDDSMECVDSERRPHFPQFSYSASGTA

The IC50 is the concentration that inhibits the measured activity by half. As to `Cc1cc(-c2ccnc3[nH]cc(Cl)c23)cc(F)c1[C@@]1(O)[C@H](C)CNC[C@@H]1C` [Compound 303, (3S,4s,5R)-4-(4-(3-chloro-1H-pyrrolo[2,3-b]pyridin-4-yl)-2-fluoro-6-methylphenyl)-3,5-dimethylpiperidin-4-ol], the IC50 was 246 nM at AKT (setting [1]), 3.3 nM on LATS2 (setting [1]) and 4.8 nM at LATS1 (setting [1]).

As for `CCc1cc(-c2ccnc3[nH]cc(F)c23)ccc1[C@@]1(O)[C@H](C)CN(C2CCS(=O)(=O)CC2)C[C@@H]1C` [Compound 306, 4-((3S,4s,5R)-4-(2-ethyl-4-(3-fluoro-1H-pyrrolo[2,3-b]pyridin-4-yl)phenyl)-4-hydroxy-3,5-dimethylpiperidin-1-yl)tetrahydro-2H-thiopyran 1,1-dioxide], the IC50 at AKT (setting [1]) was 31.2 nM; on LATS2 (setting [1]), 5.4 nM; on LATS1 (setting [1]), 11.6 nM.

Take `Cc1cc(-c2ccnc3[nH]cc(Cl)c23)cc(F)c1[C@@]1(O)[C@H](C)CN(C2CCS(=O)(=O)CC2)C[C@@H]1C` [Compound 307, 4-((3S,4s,5R)-4-(4-(3-chloro-1H-pyrrolo[2,3-b]pyridin-4-yl)-2-fluoro-6-methylphenyl)-4-hydroxy-3,5-dimethylpiperidin-1-yl)tetrahydro-2H-thiopyran 1,1-dioxide]: the IC50 was determined as 206 nM at AKT (setting [1]), 3.1 nM on LATS2 (setting [1]) and 4.2 nM at LATS1 (setting [1]).

As to `Cc1cc(-c2ccnc3[nH]ccc23)cc(F)c1[C@@]1(O)[C@H](C)CN(C2CCS(=O)(=O)CC2)C[C@@H]1C` [Compound 308, 4-((3S,4s,5R)-4-(2-fluoro-6-methyl-4-(1H-pyrrolo[2,3-b]pyridin-4-yl)phenyl)-4-hydroxy-3,5-dimethylpiperidin-1-yl)tetrahydro-2H-thiopyran 1,1-dioxide], the IC50 at AKT (setting [1]) is 1090 nM; at LATS2 (setting [1]), 8.4 nM; at LATS1 (setting [1]), 10 nM.

For `COC(=O)c1c[nH]c2nccc(-c3ccc([C@@]4(O)[C@H](C)CN(C(=O)CN)C[C@@H]4C)c(C)c3)c12` [Compound 311, methyl 4-(4-((3S,4s,5R)-1-glycyl-4-hydroxy-3,5-dimethylpiperidin-4-yl)-3-methylphenyl)-1H-pyrrolo[2,3-b]pyridine-3-carboxylate], the results for the IC50 at AKT (setting [1]), on LATS2 (setting [1]) and on LATS1 (setting [1]) were 1040 nM, 3.6 nM and 6.9 nM, respectively.

Consider `Cc1cc(-c2ccnc3[nH]cc(C)c23)cc(F)c1[C@@]1(O)[C@H](C)CN(C(=O)CN)C[C@@H]1C` [Compound 314, 2-amino-1-((3S,4s,5R)-4-(2-fluoro-6-methyl-4-(3-methyl-1H-pyrrolo[2,3-b]pyridin-4-yl)phenyl)-4-hydroxy-3,5-dimethylpiperidin-1-yl)ethan-1-one], for which the IC50 was 249 nM at AKT (setting [1]), 4.8 nM at LATS2 (setting [1]) and 1.6 nM on LATS1 (setting [1]).

`CN[C@@H](C)C(=O)N1C[C@@H](C)[C@](O)(c2c(C)cc(-c3ccnc4[nH]cc(F)c34)cc2F)[C@@H](C)C1` [Compound 315, (S)-1-((3S,4R,5R)-4-(2-fluoro-4-(3-fluoro-1H-pyrrolo[2,3-b]pyridin-4-yl)-6-methylphenyl)-4-hydroxy-3,5-dimethylpiperidin-1-yl)-2-(methylamino) propan-1-one]: the results for the IC50 at AKT (setting [1]), at LATS2 (setting [1]) and on LATS1 (setting [1]) were 1350 nM, 5.7 nM and 11.6 nM, respectively.

As to `CN[C@H](C)C(=O)N1C[C@@H](C)[C@](O)(c2c(C)cc(-c3ccnc4[nH]cc(F)c34)cc2F)[C@@H](C)C1` [Compound 316, (R)-1-((3S,4S,5R)-4-(2-fluoro-4-(3-fluoro-1H-pyrrolo[2,3-b]pyridin-4-yl)-6-methylphenyl)-4-hydroxy-3,5-dimethylpiperidin-1-yl)-2-(methylamino) propan-1-one], the IC50 was 1370 nM on AKT (setting [1]), 6.8 nM on LATS2 (setting [1]) and 12 nM on LATS1 (setting [1]).

With `Cc1cc(-c2ccnc3[nH]cc(Cl)c23)cc(F)c1[C@@]1(O)[C@H](C)CN(C(=O)CN)C[C@@H]1C` [Compound 317, 2-amino-1-((3S,4s,5R)-4-(4-(3-chloro-1H-pyrrolo[2,3-b]pyridin-4-yl)-2-fluoro-6-methylphenyl)-4-hydroxy-3,5-dimethylpiperidin-1-yl)ethan-1-one], the IC50 came to 186 nM on AKT (setting [1]), 3.8 nM at LATS2 (setting [1]) and 7.6 nM at LATS1 (setting [1]).

For the molecule `Cc1cc(-c2ccnc3[nH]cc(-c4cccnc4)c23)cc(F)c1[C@@]1(O)[C@H](C)CN(C(=O)CN)C[C@@H]1C` [Compound 318, 2-amino-1-((3S,4s,5R)-4-(2-fluoro-6-methyl-4-(3-(pyridin-3-yl)-1H-pyrrolo[2,3-b]pyridin-4-yl)phenyl)-4-hydroxy-3,5-dimethylpiperidin-1-yl)ethan-1-one], the IC50 at AKT (setting [1]) is 1420 nM; at LATS2 (setting [1]), 1.3 nM; at LATS1 (setting [1]), 4.1 nM.

With `NCC(O)(c1ccc(Cl)cc1)c1ccc(-c2ccnc3[nH]cc(Cl)c23)cc1` (stereo not drawn) [Compound 1003, 2-amino-1-(4-(3-chloro-1H-pyrrolo[2,3-b]pyridin-4-yl)phenyl)-1-(4-chlorophenyl) ethan-1-ol], the IC50 at AKT (setting [2]) worked out at 3.2 nM; on LATS2 (setting [2]), 12 nM; on LATS1 (setting [2]) it was 31.7 nM.

On to `NCC(O)(c1ccc(Cl)cc1)c1ccc(-c2ccnc3[nH]cc(Cl)c23)nc1` (stereo not drawn) [Compound 1010, 2-amino-1-(6-(3-chloro-1H-pyrrolo[2,3-b]pyridin-4-yl)pyridin-3-yl)-1-(4-chlorophenyl)ethan-1-ol], for which the IC50 at AKT (setting [2]) is below 0.5 nM; at LATS2 (setting [2]) it was below 0.5 nM; on LATS1 (setting [2]), 0.5 nM.

`NCC(O)(c1ccc(Cl)cc1)c1ccc(-c2ccnc3[nH]cc(-c4ccccc4)c23)nc1` (stereo not drawn) [Compound 1012, 2-amino-1-(4-chlorophenyl)-1-(6-(3-phenyl-1H-pyrrolo[2,3-b]pyridin-4-yl)pyridin-3-yl) ethan-1-ol]: the IC50 at AKT (setting [2]) stood at 126 nM; at LATS2 (setting [2]), 8.4 nM; at LATS1 (setting [2]), 8.5 nM.

In the case of `CC(=O)NCC(O)(c1ccc(Cl)cc1)c1ccc(-c2ccnc3[nH]ccc23)cc1` (stereo not drawn) [Compound 1014, N-(2-(4-(1H-pyrrolo[2,3-b]pyridin-4-yl)phenyl)-2-(4-chlorophenyl)-2-hydroxyethyl)acetamide], the half-maximal inhibitory concentration (IC50) turned out to be 17.2 nM at AKT (setting [2]), 5.1 nM on LATS2 (setting [2]) and 3.7 nM on LATS1 (setting [2]).
